Laboratory results: patent publication US7728107B2 (priority 2005, dated 2010)
Like-named read-outs stand apart in the source and are kept apart here.

Legend:
human 5-HT2A receptor [1] = molecular target: T1, human 5-HT2A receptor (Homo sapiens, UniProt P28223); test: biochemical; assay type: binding
T1 construct: expressed in transfected cells

human 5-HT2B receptor [2] = molecular target: T2, human 5-HT2B receptor (Homo sapiens, UniProt P41595); test: cell-based; assay type: cell-based; conditions: for Rel. eff h5-HT2B: fraction of response to 10 μM 5-HT
T2 construct: expressed in transfected cells
T2 sequence (P41595 whole entry): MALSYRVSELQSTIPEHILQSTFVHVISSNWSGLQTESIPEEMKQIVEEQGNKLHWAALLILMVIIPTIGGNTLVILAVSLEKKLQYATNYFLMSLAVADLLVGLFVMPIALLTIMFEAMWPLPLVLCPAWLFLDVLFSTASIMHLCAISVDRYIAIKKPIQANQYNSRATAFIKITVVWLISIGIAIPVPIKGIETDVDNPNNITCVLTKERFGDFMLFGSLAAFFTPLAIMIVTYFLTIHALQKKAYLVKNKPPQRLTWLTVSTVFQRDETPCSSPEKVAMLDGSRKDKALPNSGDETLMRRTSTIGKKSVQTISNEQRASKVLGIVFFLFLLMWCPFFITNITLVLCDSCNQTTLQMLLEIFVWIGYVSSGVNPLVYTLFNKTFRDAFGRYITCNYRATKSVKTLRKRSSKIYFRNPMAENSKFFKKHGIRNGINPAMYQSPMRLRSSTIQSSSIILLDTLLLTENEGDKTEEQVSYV

canine 5-HT2A receptor [3] = molecular target: T3, canine 5-HT2A receptor (Canis lupus familiaris, UniProt O46635); test: cell-based; assay type: cell-based; design: The resulting 5-HT2A full length cDNA was cloned into the pCIneo vector; expressed in transfected cells; conditions: for Rel. eff. c5-HT2A: HEK-293, fraction of response to 10 μM 5-HT; for agonist potency at canine 5-HT2A compared to human 5-HT2A: Table 3
T3 sequence (O46635 whole entry): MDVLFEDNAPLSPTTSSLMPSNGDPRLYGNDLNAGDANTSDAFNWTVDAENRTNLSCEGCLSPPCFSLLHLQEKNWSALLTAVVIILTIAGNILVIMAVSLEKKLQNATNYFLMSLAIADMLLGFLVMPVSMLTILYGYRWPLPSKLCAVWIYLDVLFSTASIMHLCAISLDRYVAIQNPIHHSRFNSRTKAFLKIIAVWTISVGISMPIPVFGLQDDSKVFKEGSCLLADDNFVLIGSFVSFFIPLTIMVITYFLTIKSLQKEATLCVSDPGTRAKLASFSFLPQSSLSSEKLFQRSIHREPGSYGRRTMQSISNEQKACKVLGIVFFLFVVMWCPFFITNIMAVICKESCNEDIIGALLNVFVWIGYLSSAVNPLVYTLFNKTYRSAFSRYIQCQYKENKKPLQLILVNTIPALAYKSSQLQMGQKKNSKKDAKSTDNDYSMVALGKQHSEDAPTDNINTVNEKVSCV

canine 5-HT2B receptor [4] = molecular target: T4, canine 5-HT2B receptor (Canis lupus familiaris, UniProt Q50DZ8); test: cell-based; assay type: cell-based; design: Apparent equilibrium dissociation constant KD; other: canine 5-HT2B, COS-7 membranes, mean ± S.E.M. (n = 3 to 6); other: COS-7 membranes; head prints [^3H]-ketanserin; mean ± S.E.M of 3-8 experiments; KD of radioligand; other: canine 5-HT2B, transfected COS-7 membranes; other: HEK-293, Ca^2+ FLIPR, mean ± S.E.M of 3 to 6 experime; conditions: for Rel. eff. c5-HT2B: HEK-293, fraction of response to 10 μM 5-HT
canine 5-HT2B receptor [5] = molecular target: T4, canine 5-HT2B receptor; test: biochemical; assay type: binding; design: Apparent equilibrium dissociation constant KD; other: canine 5-HT2B, COS-7 membranes, mean ± S.E.M. (n = 3 to 6); other: COS-7 membranes; head prints [^3H]-ketanserin; mean ± S.E.M of 3-8 experiments; KD of radioligand; other: canine 5-HT2B, transfected COS-7 membranes; other: HEK-293, Ca^2+ FLIPR, mean ± S.E.M of 3 to 6 experime
canine 5-HT2A receptor [6] = molecular target: T3, canine 5-HT2A receptor; test: biochemical
human 5-HT2B receptor [7] = molecular target: T2, human 5-HT2B receptor; test: biochemical; assay type: binding
canine 5-HT2A receptor [8] = molecular target: T3, canine 5-HT2A receptor; conditions: for Ratio c5-HT2A vs. h5-HT2A: ratio of binding affinities canine vs human 5-HT2A
canine 5-HT2B receptor [9] = test: biochemical; assay type: binding; conditions: ratio of binding affinities canine vs human 5-HT2B
human 5-HT2A receptor [10] = molecular target: T1, human 5-HT2A receptor; test: cell-based; assay type: cell-based
[11] = test system: non-transfected cells (HEK-293, NIH3T3 or CHO); test: FLIPR Ca^2+ assay in non-transfected cells; assay type: cell-based; conditions: non-transfected HEK-293, CHO or NIH3T3 cells
Protocol: Dye-loaded cells were plated onto 96-well ViewPlates (Packard, Meriden, Conn.) and incubated at 37° C. and 5% CO2 for one hour. Once dye-loaded, dye media was replaced with serum-free DMEM/F-12. […] Ligand-induced Ca^2+ release was measured using a Fluorometric Imaging Plate Reader (FLIPR, Molecular Devices, Sunnyvale, Calif.). Functional responses were measured as peak fluorescence intensity minus basal. The concentration of agonist that produced a half-maximal response is represented by the EC50 value. […] Antagonistic potency values were converted to apparent pKB values using a modified Cheng-Prusoff correction. Apparent pKB=−log IC50/1+[conc agonist/EC50]. Data are expressed as mean±S.E.M.
None of the compounds (10 μM) tested elicited a response in non-transfected cells (HEK-293, NIH3T3 or CHO). In addition, none of the antagonists tested increased Ca^2+ in any of the transfected cell types.

canine 5-HT2A receptor [12] = molecular target: T3, canine 5-HT2A receptor; test: Saturation binding of [^3H]5-HT to membranes of COS-7 cells transfected with canine 5-HT2A receptor
[13] = CHO, Ca^2+ FLIPR, apparent pKB, mean ± S.E.M of 3 to 6 experiments, read-out: Antagonist affinity pKB h5-HT2B (converted)
[14] = HEK-293, Ca^2+ FLIPR, apparent pKB, mean ± S.E.M of 3 to 6 experiments, read-out: Antagonist affinity pKB c5-HT2B (converted)
[15] = read-out: Affinity constant pKI c5-HT2B (converted)
[16] = read-out: Affinity constant pKI h5-HT2B (converted)
[17] = HEK-293, Ca^2+ FLIPR, apparent pKB, mean ± S.E.M of 3 to 6 experiments

T1 sequence (P28223 whole entry): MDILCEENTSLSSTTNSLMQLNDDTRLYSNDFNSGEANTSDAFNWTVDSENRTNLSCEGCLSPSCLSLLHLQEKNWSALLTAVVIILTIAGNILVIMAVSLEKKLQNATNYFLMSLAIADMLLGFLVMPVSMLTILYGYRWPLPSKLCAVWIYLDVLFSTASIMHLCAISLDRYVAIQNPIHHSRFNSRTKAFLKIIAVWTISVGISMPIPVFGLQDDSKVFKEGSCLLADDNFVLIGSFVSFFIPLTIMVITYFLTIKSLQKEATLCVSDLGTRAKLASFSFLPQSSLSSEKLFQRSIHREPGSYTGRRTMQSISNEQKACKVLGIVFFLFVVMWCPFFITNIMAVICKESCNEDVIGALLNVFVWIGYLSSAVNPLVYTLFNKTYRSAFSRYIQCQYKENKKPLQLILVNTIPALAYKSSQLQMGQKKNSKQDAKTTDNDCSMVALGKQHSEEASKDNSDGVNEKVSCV

SMILES: NCCc1c[nH]c2ccc(C(N)=O)cc12 [5-CT, 5-carboxyamidotryptamine]
- Ki (human 5-HT2A receptor [1]): 1150 nM
- Rel. eff h5-HT2B (human 5-HT2B receptor [2]; CHO): 0.95 ± 0.01
- Rel. eff. c5-HT2A (canine 5-HT2A receptor [3]): 0.94 ± 0.08
- agonist potency at canine 5-HT2A compared to human 5-HT2A (canine 5-HT2A receptor [3]; functional Ca^2+ assay): higher potencies
- Rel. eff. c5-HT2B (canine 5-HT2B receptor [4]): 1.19 ± 0.05
- Ki (canine 5-HT2B receptor [5]): 74.1 nM
- Ki (canine 5-HT2A receptor [6]): 2290 nM
- Ki (human 5-HT2B receptor [7]): 61.7 nM
- Ratio c5-HT2A vs. h5-HT2A (canine 5-HT2A receptor [8]): 1.99
- Ratio c5-HT2B vs. h5-HT2B (canine 5-HT2B receptor [9]): 1.20
- Rel. eff. h5-HT2A (human 5-HT2A receptor [10]): 0.70 ± 0.13

SMILES: NCCc1c[nH]c2ccc(O)cc12 [5-HT, 5-hydroxytryptamine]
- Rel. eff. c5-HT2A (canine 5-HT2A receptor [3]): 1
- peak fluorescence intensity of Ca^2+ response (canine 5-HT2A receptor [3]; canine 5-HT2A, HEK-293, FIG. 5A): 13600 peak fluorescence intensity units
- Ca^2+ response in non-transfected cells [11]: No signal
- Ki (canine 5-HT2A receptor [6]): 178 nM
- Rel. eff. h5-HT2A (human 5-HT2A receptor [10]): 1
- peak fluorescence intensity of Ca^2+ response (human 5-HT2A receptor [10]): 15800 peak fluorescence intensity units

SMILES: CC(N)Cc1c[nH]c2ccc(OCc3cccs3)cc12 (centres unmarked) [BW-723C86, 1-{5-(2-thienyl-methoxy)-1H-3-indolyl}propan-2-amine]
- Rel. eff h5-HT2B (human 5-HT2B receptor [2]; CHO): 0.98 ± 0.01
- Rel. eff. c5-HT2B (canine 5-HT2B receptor [4]): 0.93 ± 0.03
- Ki (canine 5-HT2B receptor [5]): 26.3 nM

SMILES: COc1cc(CC(C)N)c(OC)cc1I (centres unmarked) [DOI, 1-(2,5-dimethoxy-4-iodophenyl)-2-aminopropane]
- Rel. eff h5-HT2B (human 5-HT2B receptor [2]; CHO): 0.96 ± 0.02
- Rel. eff. c5-HT2A (canine 5-HT2A receptor [3]): 0.89 ± 0.02
- Rel. eff. c5-HT2B (canine 5-HT2B receptor [4]): 0.75 ± 0.03
- Ki (canine 5-HT2B receptor [5]): 13.2 nM
- Ki (canine 5-HT2A receptor [6]): 12 nM
- Ki (human 5-HT2B receptor [7]): 15.1 nM
- Rel. eff. h5-HT2A (human 5-HT2A receptor [10]): 0.65 ± 0.04

SMILES: CN(C)CCO/N=C(/C=C/c1ccc(O)cc1)c1ccccc1F [Eplivanserin, eplivanserin]
- Ki (human 5-HT2A receptor [1]; read-out: Affinity constant pKI h5-HT2A (converted)): 0.2 nM
- Kb (human 5-HT2B receptor [2]; [13]): > 10000 nM
- Kb (canine 5-HT2A receptor [3]; HEK-293, Ca^2+ FLIPR, apparent pKB, mean ± S.E.M of 3 to 6 experiments, read-out: Antagonist affinity pKB c5-HT2A (converted)): 0.251 nM
- Kb (canine 5-HT2B receptor [4]; [14]): > 10000 nM
- Ki (canine 5-HT2B receptor [5]; [15]): 1910 nM
- Ki (canine 5-HT2A receptor [6]): 1 nM
- Ki (human 5-HT2B receptor [7]; [16]): 1410 nM
- Kb (human 5-HT2A receptor [10]; NIH3T3, Ca^2+ FLIPR, apparent pKB, mean ± S.E.M of 3 to 6 experiments, read-out: Antagonist affinity pKB h5-HT2A (converted)): 0.372 nM

SMILES: O=C(c1ccc(F)cc1)C1CCN(CCn2c(=O)[nH]c3ccccc3c2=O)CC1 [Ketanserin, ketanserin]
- Kb (canine 5-HT2A receptor [3]): 1.26 nM
- Kb (canine 5-HT2B receptor [4]): 1580 nM
- Ki (canine 5-HT2B receptor [5]): 631 nM
- Ki (canine 5-HT2A receptor [6]): 14.5 nM

SMILES: CN1C[C@@H](NS(=O)(=O)N(C)C)C[C@@H]2c3cccc4c3c(cn4C)C[C@H]21 [Mesulergine, mesulergine]
- Ki (human 5-HT2A receptor [1]): 22.9 nM
- Kb (human 5-HT2B receptor [2]): 2.34 nM
- Kb (canine 5-HT2A receptor [3]): 25.1 nM
- Kb (canine 5-HT2B receptor [4]; [14]): 0.501 nM
- Ki (canine 5-HT2B receptor [5]; [15]): 17 nM
- Ki (canine 5-HT2A receptor [6]): 91.2 nM
- Ki (human 5-HT2B receptor [7]): 8.71 nM
- Kb (human 5-HT2A receptor [10]): 58.9 nM

SMILES: CSc1ccc2c(c1)C(N1CCN(C)CC1)Cc1ccccc1S2 (centres unmarked) [Methiothepin, methiothepin]
- Antagonist affinity pKB c5-HT2A (canine 5-HT2A receptor [3]; [17]): 8.33 ± 0.09
- antagonist affinity for canine 5-HT2A receptor compared to human 5-HT2A receptor (canine 5-HT2A receptor [3]; functional Ca^2+ assay, Table 4): eleven-fold higher affinity
- Antagonist affinity pKB c5-HT2B (canine 5-HT2B receptor [4]; [17]): 8.07 ± 0.77
- Affinity constant pKI c5-HT2B (canine 5-HT2B receptor [5]; COS-7 membranes, head prints [^3H]-ketanserin, mean ± S.E.M of 3-8 experiments): 8.12 ± 0.16
- Ki (canine 5-HT2A receptor [8]): 3.55 nM

SMILES: COc1ccc2[nH]cc(C3=CCNCC3)c2c1 [RU-24969, 5-methoxy-3(1,2,3,6-tetrahydro-4-pyridiny)-1H-indole]
- Ki (canine 5-HT2B receptor [5]): 12.9 nM

SMILES: Cc1nc2sccn2c(=O)c1CCN1CCC(=C(c2ccc(F)cc2)c2ccc(F)cc2)CC1 [Ritanserin, ritanserin]
- Kb (human 5-HT2B receptor [2]): 5.89 nM
- Kb (canine 5-HT2A receptor [3]): 7.08 nM
- Kb (canine 5-HT2B receptor [4]): 10 nM
- Ki (canine 5-HT2B receptor [5]): 3.98 nM
- Ki (canine 5-HT2A receptor [6]): 7.59 nM
- Ki (human 5-HT2B receptor [7]): 4.57 nM

SMILES: Cc1cc(NC(=O)Nc2ccc3c(ccn3C)c2)sn1 [SB-204741, N-(1-methyl-5-in-dolyl)-N′-(3-methyl-5-isothiazolyl) urea]
- Kb (human 5-HT2B receptor [2]; [13]): 44.7 nM
- Kb (canine 5-HT2A receptor [3]): > 10000 nM
- Kb (canine 5-HT2B receptor [4]; [14]): 44.7 nM
- Ki (canine 5-HT2B receptor [5]; [15]): 182 nM
- Ki (canine 5-HT2A receptor [6]): > 10000 nM
- Ki (human 5-HT2B receptor [7]; [16]): 120 nM

SMILES: CN1CCc2cc(Cl)c(O)cc2[C@@H](c2ccccc2)C1 [SCH-23390, R-(+)-7-chloro-8-hydroxy-3-methyl-1-phenyl-2,3,4,5-tetrahydro(1H)-3-benzapine]
- Ki (human 5-HT2A receptor [1]): 13.5 nM
- Ki (canine 5-HT2B receptor [5]; [15]): 309 nM
- Ki (canine 5-HT2A receptor [6]): 16.2 nM
- Ki (human 5-HT2B receptor [7]; [16]): 275 nM

SMILES: FC(F)(F)c1cccc(N2CCNCC2)c1 [TFMPP, N-(3-trifluoromethyl-henyl)piperazine]
- Ki (human 5-HT2A receptor [1]): 87.1 nM
- Rel. eff h5-HT2B (human 5-HT2B receptor [2]; CHO): 0.49 ± 0.04
- Rel. eff. c5-HT2A (canine 5-HT2A receptor [3]): 0.72 ± 0.04
- agonist potency at canine 5-HT2A compared to human 5-HT2A (canine 5-HT2A receptor [3]; functional Ca^2+ assay): higher potencies
- agonistic response on canine 5-HT2B receptor (canine 5-HT2B receptor [4]; HEK-293, Ca^2+ FLIPR): no agonistic response
- Ki (canine 5-HT2B receptor [5]): 41.7 nM
- Ki (canine 5-HT2A receptor [6]): 214 nM
- Affinity constant pKI h5-HT2B (human 5-HT2B receptor [7]; CHO membranes, head: [^3H]-mesulergine, mean ± S.E.M of 3-8 experiments): 7.40 ± 0.05
- Ratio c5-HT2A vs. h5-HT2A (canine 5-HT2A receptor [8]): 2.45
- Ratio c5-HT2B vs. h5-HT2B (canine 5-HT2B receptor [9]): 1.04
- Rel. eff. h5-HT2A (human 5-HT2A receptor [10]): 0.17 ± 0.01

SMILES: COC(=O)[C@@H]1[C@H]2C[C@H]3c4[nH]c5ccccc5c4CCN3C[C@@H]2CC[C@@H]1O [Yohimbine, yohimbine]
- Kb (canine 5-HT2B receptor [4]): 1.58 nM
- Ki (canine 5-HT2B receptor [5]): 81.3 nM

SMILES: NCCc1c[nH]c2ccc(O)cc12 [[^3H]-5-HT]
- Kd (canine 5-HT2A receptor [12]): 3 ± 0.6 nM

SMILES: O=C(c1ccc(F)cc1)C1CCN(CCn2c(=O)[nH]c3ccccc3c2=O)CC1 [[^3H]-ketanserin]
- Kd (canine 5-HT2A receptor [6]): 1.3 ± 0.12 nM

SMILES: CN1C[C@@H](NS(=O)(=O)N(C)C)C[C@@H]2c3cccc4c3c(cn4C)C[C@H]21 [[^3H]-mesulergine]
- Kd (canine 5-HT2B receptor [5]; canine 5-HT2B, transfected COS-7 membranes, read-out: KD of radioligand): 5.43 ± 0.69 nM

SMILES: Clc1cccc(N2CCNCC2)c1 [m-CPP, 1-(3-chlorophenyl)piperazine]
- Rel. eff h5-HT2B (human 5-HT2B receptor [2]; CHO): 0.55 ± 0.06
- Rel. eff. c5-HT2A (canine 5-HT2A receptor [3]): 0.71 ± 0.04
- agonist potency at canine 5-HT2A compared to human 5-HT2A (canine 5-HT2A receptor [3]; functional Ca^2+ assay): higher potencies
- agonistic response on canine 5-HT2B receptor (canine 5-HT2B receptor [4]; HEK-293, Ca^2+ FLIPR): no agonistic response
- Ki (canine 5-HT2B receptor [5]): 20.9 nM
- Ki (canine 5-HT2A receptor [6]): 195 nM
- Rel. eff. h5-HT2A (human 5-HT2A receptor [10]): 0.20 ± 0.02
